# Assay results published in patent publication US9499538B2, “Estrogen receptor modulators and uses thereof” (Seragon Pharmaceuticals, Inc., priority 2012, dated 2016).
# How the values were obtained:
# ER-α in MCF-7 cells = target: T1, ER-α in MCF-7 cells (Homo sapiens, UniProt P03372); experiment: Breast Cancer Cell ER-α In Cell Western Assay (SP1); type: cell-based; details: 4 or 24 hr post compound addition; for Emax: MCF7, SP1 antibody, read-out: ER-α In Cell Western Assay (SP1) Max Response; for DC50: SP1 antibody, read-out: ER-α In Cell Western Assay (SP1) IC50
# T1 construct: endogenous in cells; host or cells: MCF-7
# T1 sequence (P03372 1-595): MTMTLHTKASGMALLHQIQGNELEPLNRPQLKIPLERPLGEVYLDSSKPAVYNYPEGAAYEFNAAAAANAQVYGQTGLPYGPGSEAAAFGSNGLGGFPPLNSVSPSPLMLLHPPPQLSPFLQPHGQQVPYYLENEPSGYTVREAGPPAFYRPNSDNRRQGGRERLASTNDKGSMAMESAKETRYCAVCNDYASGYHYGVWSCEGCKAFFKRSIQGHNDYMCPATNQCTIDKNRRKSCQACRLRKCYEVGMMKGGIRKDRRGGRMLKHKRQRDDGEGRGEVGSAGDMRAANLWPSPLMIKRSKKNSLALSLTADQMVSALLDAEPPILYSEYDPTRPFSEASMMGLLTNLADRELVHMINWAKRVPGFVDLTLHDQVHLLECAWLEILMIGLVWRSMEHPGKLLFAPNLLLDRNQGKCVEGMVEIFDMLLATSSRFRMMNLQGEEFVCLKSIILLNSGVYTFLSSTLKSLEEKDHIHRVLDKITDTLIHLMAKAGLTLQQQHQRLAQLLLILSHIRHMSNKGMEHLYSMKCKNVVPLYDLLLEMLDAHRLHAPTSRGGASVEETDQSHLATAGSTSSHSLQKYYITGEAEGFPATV
# Summary of the method: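 MCF-7 cells in charcoal-stripped FBS medium, treated with 11-point semilog dilutions (0.3–0.000003 μM final) for 4 or 24 h. Fixed cells immunostained with SP1 antibody (800 nm) and DRAQ5 DNA (700 nm); ER/DNA ratio expressed as % of untreated cells.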
# MCF-7 cells = experiment: Breast Cancer Cell Viability Assays (MCF-7, CellTiter-Glo); type: cell-based; details: 5 days' compound exposure; for IC50: Homo sapiens, MCF7, 120 h
# Summary of the method: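 MCF-7 cells (320/well, RPMI with 10% FBS) exposed for 5 days to an eleven-point semilog series, 0.3–0.000003 μM final. Viability read by CellTiter-Glo luminescence, expressed as background-corrected percent of untreated cells.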
SMILES,Emax (ER-α in MCF-7 cells),DC50 (ER-α in MCF-7 cells),IC50 (MCF-7 cells),MCF7 Viability Assay Max Response (MCF-7 cells)
"CC/C(=C(/c1ccc(/C=C/C(=O)O)cc1)c1ccc2[nH]nc(F)c2c1)c1cccc(Oc2cncc(S(C)(=O)=O)n2)c1 [Example 56, (E)-3-(4-((E)-1-(3-Fluoro-1H-indazol-5-yl)-2-(3-((6-(methylsulfonyl)pyrazin-2-yl)oxy)phenyl)but-1-en-1-yl)phenyl)acrylic acid]",≥ 40%,≤ 0.1 µM,> 0.1 µM,++ (++ = a single % value ≧ 40%)
"CC/C(=C(/c1ccc(/C=C/C(=O)O)cc1)c1ccc2[nH]nc(F)c2c1)c1ccc(Oc2cncc(S(C)(=O)=O)n2)cc1 [Example 58, (E)-3-(4-((E)-1-(3-Fluoro-1H-indazol-5-yl)-2-(4-((6-(methylsulfonyl)pyrazin-2-yl)oxy)phenyl)but-1-en-1-yl)phenyl)acrylic acid]",≥ 40%,> 0.1 µM,> 0.1 µM,++ (++ = a single % value ≧ 40%)
"N#Cc1ccc(/C(=C(\c2ccc(/C=C/C(=O)O)cc2)c2ccc3[nH]ncc3c2F)C2CCC2)c(F)c1 [Example 60, (E)-3-(4-((E)-2-(4-Cyano-2-fluorophenyl)-2-cycobutyl-1-(4-fluoro-1H-indazol-5-yl)vinyl)phenyl)acrylic acid]",≥ 40%,≤ 0.1 µM,≤ 0.1 µM,++ (++ = a single % value ≧ 40%)
"N#Cc1ccc(/C(=C(\c2ccc(/C=C/C(=O)O)cc2)c2ccc3[nH]nc(F)c3c2)C2CCC2)c(C#N)c1 [Example 62, (E)-3-(4-((E)-2-Cyclobutyl-2-(2,4-dicyanophenyl)-1-(3-fluoro-1H-indazol-5-yl)vinyl)phenyl)acrylic acid]",≥ 40%,≤ 0.1 µM,≤ 0.1 µM,++ (++ = a single % value ≧ 40%)
"COc1ccc(/C(=C(\c2ccc(/C=C/C(=O)O)cc2)c2ccc3[nH]ncc3c2)C2CCC2)c(C)c1 [Example 64, (E)-3-(4-((E)-2-Cyclobutyl-1-(1H-indazol-5-yl)-2-(4-methoxy-2-methylphenyl)vinyl)phenyl)acrylic acid]",≥ 40%,≤ 0.1 µM,≤ 0.1 µM,++ (++ = a single % value ≧ 40%)
"COc1ccc(/C(=C(\c2ccc(/C=C/C(=O)O)cc2)c2ccc3[nH]nc(F)c3c2)C2CCC2)c(C)c1 [Example 65, (E)-3-(4-((E)-2-Cyclobutyl-1-(3-fluoro-1H-indazol-5-yl)-2-(4-methoxy-2-methylphenyl)vinyl)phenyl)acrylic acid]",≥ 40%,≤ 0.1 µM,≤ 0.1 µM,++ (++ = a single % value ≧ 40%)
"COc1ccc(/C(=C(\c2ccc(/C=C/C(=O)O)cc2)c2ccc3[nH]nc(F)c3c2)C2CCC2)c(F)c1 [Example 68, (E)-3-(4-((E)-2-Cyclobutyl-1-(3-fluoro-1H-indazol-5-yl)-2-(2-fluoro-4-methoxyphenyl)vinyl)phenyl)acrylic acid]",≥ 40%,≤ 0.1 µM,≤ 0.1 µM,++ (++ = a single % value ≧ 40%)
"CC/C(=C(/c1ccc(/C=C/C(=O)O)cc1)c1ccc2[nH]nc(F)c2c1)c1cnc(OC)cc1C [Example 71, (E)-3-(4-((E)-1-(3-Fluoro-1H-indazol-5-yl)-2-(6-methoxy-4-methylpyridin-3-yl)but-1-en-1-yl)phenyl)acrylic acid]",≥ 40%,≤ 0.1 µM,≤ 0.1 µM,++ (++ = a single % value ≧ 40%)

# More lines, main results first:
Emax (ER-α in MCF-7 cells),DC50 (ER-α in MCF-7 cells),IC50 (MCF-7 cells),SMILES,MCF7 Viability Assay Max Response (MCF-7 cells)
≥ 40%,≤ 0.1 µM,≤ 0.1 µM,"Cc1cc(C#N)ccc1/C(=C(\c1ccc(/C=C/C(=O)O)cc1)c1ccc2[nH]ncc2c1)C1CCC1 [Example 55, (E)-3-(4-((E)-2-(4-Cyano-2-methylphenyl)-2-cyclobutyl-1-(1H-indazol-5-yl)vinyl)phenyl)acrylic acid]",++ (++ = a single % value ≧ 40%)
≥ 40%,≤ 0.1 µM,≤ 0.1 µM,"CC/C(=C(/c1ccc(/C=C/C(=O)O)cc1)c1ccc2[nH]nc(F)c2c1)c1cccc(Oc2cnc(S(C)(=O)=O)cn2)c1 [Example 57, (E)-3-(4-((E)-1-(3-Fluoro-1H-indazol-5-yl)-2-(3-((5-(methylsulfonyl)pyrazin-2-yl)oxy)phenyl)but-1-en-1-yl)phenyl)acrylic acid]",++ (++ = a single % value ≧ 40%)
≥ 40%,≤ 0.1 µM,≤ 0.1 µM,"CC/C(=C(/c1ccc(/C=C/C(=O)O)cc1)c1ccc2[nH]nc(F)c2c1)c1ccc(Oc2cnc(S(C)(=O)=O)cn2)cc1 [Example 59, (E)-3-(4-((E)-1-(3-Fluoro-1H-indazol-5-yl)-2-(4-((5-(methylsulfonyl)pyrazin-2-yl)oxy)phenyl)but-1-en-1-yl)phenyl)acrylic acid]",++ (++ = a single % value ≧ 40%)
≥ 40%,≤ 0.1 µM,≤ 0.1 µM,"N#Cc1cc(Cl)ccc1/C(=C(\c1ccc(/C=C/C(=O)O)cc1)c1ccc2[nH]ncc2c1F)C1CCC1 [Example 61, (E)-3-(4-((E)-2-(4-Chloro-2-cyanophenyl)-2-cyclobutyl-1-(4-fluoro-1H-indazol-5-yl)vinyl)phenyl)acrylic acid]",++ (++ = a single % value ≧ 40%)
≥ 40%,≤ 0.1 µM,≤ 0.1 µM,"CC/C(=C(/c1ccc(/C=C/C(=O)O)cc1)c1ccc2[nH]nc(F)c2c1)c1ccc(OC)cc1C [Example 63, (E)-3-(4-((E)-1-(3-Fluoro-1H-indazol-5-yl)-2-(4-methoxy-2-methylphenyl)but-1-en-1-yl)phenyl)acrylic acid]",++ (++ = a single % value ≧ 40%)
≥ 40%,≤ 0.1 µM,≤ 0.1 µM,"N#Cc1cc(F)ccc1/C(=C(\c1ccc(/C=C/C(=O)O)cc1)c1ccc2[nH]ncc2c1F)C1CCC1 [Example 66, (E)-3-(4-((E)-2-(2-Cyano-4-fluorophenyl)-2-cyclobutyl-1-(4-fluoro-1H-indazol-5-yl)vinyl)phenyl)acrylic acid]",++ (++ = a single % value ≧ 40%)
≥ 40%,≤ 0.1 µM,≤ 0.1 µM,"COc1ccc(/C(=C(\c2ccc(/C=C/C(=O)O)cc2)c2ccc3[nH]nc(F)c3c2)C2CCC2)c(Cl)c1 [Example 67, (E)-3-(4-((E)-2-(2-Chloro-4-methoxyphenyl)-2-cyclobutyl-1-(3-fluoro-1H-indazol-5-yl)vinyl)phenyl)acrylic acid]",++ (++ = a single % value ≧ 40%)
≥ 40%,≤ 0.1 µM,≤ 0.1 µM,"COc1ccc(/C(=C(\c2ccc(/C=C/C(=O)O)cc2)c2ccc3[nH]nc(F)c3c2)C2CCC2)c(C)n1 [Example 69, (E)-3-(4-((E)-2-Cyclobutyl-1-(3-fluoro-1H-indazol-5-yl)-2-(6-methoxy-2-methylpyridin-3-yl)vinyl)phenyl)acrylic acid]",++ (++ = a single % value ≧ 40%)
≥ 40%,≤ 0.1 µM,≤ 0.1 µM,"CC/C(=C(/c1ccc(/C=C/C(=O)O)cc1)c1ccc2[nH]nc(F)c2c1)c1ccc(OC)nc1C [Example 70, (E)-3-(4-((E)-1-(3-Fluoro-1H-indazol-5-yl)-2-(6-methoxy-2-methylpyridin-3-yl)but-1-en-1-yl)phenyl)acrylic acid]",++ (++ = a single % value ≧ 40%)
≥ 40%,≤ 0.1 µM,≤ 0.1 µM,"CSc1ccc(/C(=C(\c2ccc(/C=C/C(=O)O)cc2)c2ccc3[nH]nc(F)c3c2)C2CCC2)c(C)c1 [Example 72, (E)-3-(4-((E)-2-Cyclobutyl-1-(3-fluoro-1H-indazol-5-yl)-2-(2-methyl-4-(methylthio)phenyl)vinyl)phenyl)acrylic acid]",++ (++ = a single % value ≧ 40%)
≥ 40%,≤ 0.1 µM,≤ 0.1 µM,"CSc1ccc(/C(=C(\c2ccc(/C=C/C(=O)O)cc2)c2ccc3[nH]nc(F)c3c2)C2CCC2)c(Cl)c1 [Example 73, (E)-3-(4-((E)-2-(2-Chloro-4-(methylthio)phenyl)-2-cyclobutyl-1-(3-fluoro-1H-indazol-5-yl)vinyl)phenyl)acrylic acid]",++ (++ = a single % value ≧ 40%)
≥ 40%,≤ 0.1 µM,≤ 0.1 µM,"N#Cc1cnccc1/C(=C(\c1ccc(/C=C/C(=O)O)cc1)c1ccc2[nH]nc(F)c2c1)C1CCC1 [Example 74, (E)-3-(4-((E)-2-(3-Cyanopyridin-4-yl)-2-cyclobutyl-1-(3-fluoro-1H-indazol-5-yl)vinyl)phenyl)acrylic acid]",++ (++ = a single % value ≧ 40%)
